Experiments:
Rdh8−/−Abca4−/− mice = assay: SD-OCT grading of retinal degeneration in light-exposed Rdh8−/−Abca4−/− mice; assay type: in vivo, mouse; settings: for effectiveness in treating retinal degeneration in the mice: ABCA4−/−/RDH8−/− mice, effective = OCT score at least about 2.5 and 11-cis-retinal increase at least about 30%; for Score OCT: Rdh8−/−Abca4−/− mice, SD-OCT 7 days after 10,000 lux illumination for 30 min at 4 weeks of age, score 5 = no degeneration, 1 = severe, No Treatment 1
From the text: (§1) We tested 21 drugs containing primary amino groups to determine if they react with the aldehyde group of all-trans-RAL to reduce its toxic levels in the eye after exposure to light and prevent its condensation into toxic conjugates. […] For these experiments, we used ABCA4^−/−/RDH8^−/− mice as models for Stargardt's disease and AMD. We employed analytical methods for determining the pharmacodynamics and pharmacokinetics of candidate drugs including: HPLC/MS/MS for analysis of retinoids and histological sections and OCT for assessment of retinal pathology. The relative amount of retinoids and their composition strongly correlates with the health status of the retina. […] Methodologies for performing the analysis on ABCA4^−/−/RDH8^−/− mice is described below.
(§2) Abca4^−/− mice also were generated by standard procedures (Ingenious Targeting, Inc., Stony Brook, N.Y.). […] Rdh8^−/−Abca4^−/− mice were established by crossbreeding Abca4^−/− mice with Rdh8^−/− mice. […] PCR products were cloned and sequenced to verify their identities.
Although analytical and histological methods provide exhaustive characterization of retina, they cannot be performed in vivo. To reduce the number of sacrificed animals and time required for analysis, SD-OCT from Bioptigen (Research Triangle Park, N.C.) was employed for in vivo imaging of mouse retinas. Bioptigen OCT systems utilize a narrow single-mode beam from a wide bandwidth light source to probe the structure of retina at a higher resolution (2.0 μm) than normal OCT systems. Mice were anesthetized by intraperitoneal (IP) injection of 20 μl/g bw of 6 mg/ml ketamine and 0.44 mg/ml xylazine diluted with 10 mM sodium phosphate, pH 7.2, containing 100 mM NaCl. Pupils were dilated with 1% tropicamide. In vivo SD-OCT images were obtained from both eyes. Four pictures acquired in a B-scan mode were used to construct the final averaged images (FIG. 8).
In vivo retinal structures of Rdh8^−/−Abca4^−/− mice are imaged by SD-OCT 7 days after 10,000 lux illumination for 30 min at 4 weeks of age.

ABCA4−/−/RDH8−/− mice = assay: HPLC analysis of 11-cis-retinal in eyes of ABCA4−/−/RDH8−/− mice; assay type: in vivo, mouse; settings: HPLC peak area of 11-cis-retinal, No Treatment 88.2
From the text: as §1, §2
All experimental procedures related to extraction, derivatization, and separation of retinoids from dissected mouse eyes were carried out under dim red light. Two whole mouse eyes were homogenized in 1 ml of 50 mM phosphate buffer, pH 7.0, containing 50% ethanol and 10 mM NH2OH. Ice-cold methanol (1 ml) was added to the homogenates 20 min after incubation at room temperature (RT), non-polar retinoids were extracted twice with 4 ml of hexane. The organic phase was collected, dried down in a SpeedVac and re-solubilized in 0.3 ml of hexane. […] Retinoids were detected at 325 nm (retinyl esters and retinols) and 350 nm (retinyl oximes) with a diode array detector. Those of interest were quantified based on the areas under their peaks calculated with the help of HP Chemstation A.03.03 software and compared with areas calculated based on known amounts of synthetic standards plotted as a standard curve.

[1] = Formation of Schiff base between retinal and selected amines (UV/Vis spectra); assay type: physicochemical; settings: 90% ethanol in water, 0.1 M phosphate buffer pH 7.0, 2 molar excess of amine, 1 h room temperature
Experimental: Formation of conjugates (Schiff-base) between retinal and primary amine compounds containing amino group (putative drugs) is the key mechanism to control all-trans-RAL levels in the retina and prevent retina degeneration. Stability of these conjugates is an important factor that can determine biological activity of the drugs. To standardize conditions of Schiff-base formation all reactions were performed in 90% ethanol in water buffered with 0.1 M phosphate buffer, pH 7.0. Stock solution of retinal was made up freshly in ethanol. Its final concentration was determined spectrophotometrically at 380 nm (ε=42,880). All procedures were carried out in the dark. Schiff base formation was initiated by addition of retinal stock solution to a 2 molar excess of tested amine dissolved in the reaction buffer. The reaction mixture was incubated for 1 h in room temperature.
Steady-state rate of Schiff-base formation was obtained from absorbance changes at 380 and 440 nm (510 nm for aromatic amines) corresponding to free retinal and protonated Schiff base, respectively. To investigate stability of the given retinal conjugates a mixture of HPLC purified Schiff base of selected compound and phosphatidylocholine was dried down in SpeedVac. Then, Schiff-base and lipids were overlaid with 0.1 M phosphate buffer and sonicated immediately to form liposomes. The samples were extracted with hexane following 30 min incubated in room temperature. The breakdown of Schiff-base was monitored by HPLC detection of free retinal extracted from the reaction mixture.
FIGS. 3-5 illustrate UV/Vis spectra for the FDA approved drugs. FDA approved drugs that were active readily formed a Schiff base with all-trans-RAL as evidenced by a substantial differential between spectra of unprotonated and protonated Schiff base.

CC(C)C[C@@H](CN)CC(=O)O [(R)-3-(aminomethyl)-5-methylhexanoic acid]
effectiveness in treating retinal degeneration in the mice (Rdh8−/−Abca4−/− mice): effective in treating retinal degeneration
11cRAL (area) (ABCA4−/−/RDH8−/− mice): 164.8

Nc1ccc(C(=O)NCC(=O)[O-])cc1.[Na+] [Aminohippurate Sodium]
Score OCT (Rdh8−/−Abca4−/− mice): 1
11cRAL (area) (ABCA4−/−/RDH8−/− mice): 109.4

Nc1ccc(O)c(C(=O)O)c1 [Asacol]
effectiveness in treating retinal degeneration in the mice (Rdh8−/−Abca4−/− mice): effective in treating retinal degeneration
11cRAL (area) (ABCA4−/−/RDH8−/− mice): 140.2

CC(C)(S)[C@@H](N)C(=O)O [Cuprimine]
formation of stable Schiff-base with all-trans-RAL [1]: did not readily form stable Schiff-bases
Score OCT (Rdh8−/−Abca4−/− mice): 1.7
11cRAL (area) (ABCA4−/−/RDH8−/− mice): 118.5

Nc1ccc(S(=O)(=O)c2ccc(N)cc2)cc1 [Dapsone]
effectiveness in treating retinal degeneration in the mice (Rdh8−/−Abca4−/− mice): effective in treating retinal degeneration
11cRAL (area) (ABCA4−/−/RDH8−/− mice): 156.5

CC(N)C12CC3CC(CC(C3)C1)C2 (stereo not drawn) [Flumadine]
effectiveness in treating retinal degeneration in the mice (Rdh8−/−Abca4−/− mice): effective in treating retinal degeneration
11cRAL (area) (ABCA4−/−/RDH8−/− mice): 135.3

N[C@@H](CC(=O)N1CCn2c(nnc2C(F)(F)F)C1)Cc1cc(F)c(F)cc1F [Januvia]
effectiveness in treating retinal degeneration in the mice (Rdh8−/−Abca4−/− mice): effective in treating retinal degeneration
11cRAL (area) (ABCA4−/−/RDH8−/− mice): 126.8

COCCCC/C(=N\OCCN)c1ccc(C(F)(F)F)cc1 [Luvox]
effectiveness in treating retinal degeneration in the mice (Rdh8−/−Abca4−/− mice): effective in treating retinal degeneration
11cRAL (area) (ABCA4−/−/RDH8−/− mice): 175.5

CC(C)C[C@H](CN)CC(=O)O [Lyrica, (S)-3-(aminomethyl)-5-methylhexanoic acid]
formation of stable Schiff-base with all-trans-RAL [1]: readily formed stable Schiff-bases
effectiveness in treating retinal degeneration in the mice (Rdh8−/−Abca4−/− mice): effective in treating retinal degeneration
11cRAL (area) (ABCA4−/−/RDH8−/− mice): 166.5

CC12CC3CC(C)(C1)CC(N)(C3)C2 [Nameda]
Score OCT (Rdh8−/−Abca4−/− mice): 1.7
11cRAL (area) (ABCA4−/−/RDH8−/− mice): 97.6

Nc1ccc(C(=O)O)c(O)c1 [Paser]
formation of stable Schiff-base with all-trans-RAL [1]: readily formed stable Schiff-bases
effectiveness in treating retinal degeneration in the mice (Rdh8−/−Abca4−/− mice): effective in treating retinal degeneration
11cRAL (area) (ABCA4−/−/RDH8−/− mice): 151.9

Nc1ccc(C(=O)[O-])cc1.[K+] [Potaba]
formation of stable Schiff-base with all-trans-RAL [1]: did not readily form stable Schiff-bases
Score OCT (Rdh8−/−Abca4−/− mice): 2.3
11cRAL (area) (ABCA4−/−/RDH8−/− mice): 90.6

NCCCC[C@H](N[C@@H](CCc1ccccc1)C(=O)O)C(=O)N1CCC[C@H]1C(=O)O [Prinivil]
Score OCT (Rdh8−/−Abca4−/− mice): 2.0
11cRAL (area) (ABCA4−/−/RDH8−/− mice): 132.7

N[C@@H]1CON=C1O [Seromycin]
formation of stable Schiff-base with all-trans-RAL [1]: readily formed stable Schiff-bases
effectiveness in treating retinal degeneration in the mice (Rdh8−/−Abca4−/− mice): effective in treating retinal degeneration
11cRAL (area) (ABCA4−/−/RDH8−/− mice): 159.9

NS(=O)(=O)c1cc2c(cc1Cl)N=C[N-]S2(=O)=O.[Na+] [Sodium Diuril]
effectiveness in treating retinal degeneration in the mice (Rdh8−/−Abca4−/− mice): effective in treating retinal degeneration
11cRAL (area) (ABCA4−/−/RDH8−/− mice): 139.7

NCc1ccc(S(N)(=O)=O)cc1 [Sulfamylon]
effectiveness in treating retinal degeneration in the mice (Rdh8−/−Abca4−/− mice): effective in treating retinal degeneration
11cRAL (area) (ABCA4−/−/RDH8−/− mice): 166.1

CCOC(=O)C1=C[C@@H](OC(CC)CC)[C@H](NC(C)=O)[C@@H](N)C1 [Tamiflu]
Score OCT (Rdh8−/−Abca4−/− mice): 1.3
11cRAL (area) (ABCA4−/−/RDH8−/− mice): 87.3
